Tested on: PAF-induced aggregation of human thrombocytes
Experiment: Inhibition of PAF-induced blood platelet aggregation in vitro
Assay type: cell-based
Conditions: thrombocyte-rich plasma, aggregation induced with PAF 5×10^-8 M, concentration giving a 50% inhibition of aggregation, read-out: PAF-Antag. IC50
Description: 1. Inhibition of blood platelet aggregation in vitro
The PAF-induced aggregation of human thrombocytes in vitro is used to determine PAF-antagonistic activity. To obtain thrombocyte-rich plasma (TRP) blood is taken from an uncongested vein using a plastic syringe containing 3.8% sodium citrate solution. The ratio of sodium citrate solution to blood is 1:9. After careful mixing the citrate blood is centrifuged for 20 minutes at 150 g (1200 rpm). The thrombocyte aggregation is measured using the method devised by Born and Cross (G. V. R. Born and M. J. Cross, J. Physiol. 168, 178 (1963)), by adding an aggregation initiator (PAF) to the TRP with constant stirring.
The test substance is added 2 to 3 minutes before aggregation is initiated in a volume of 10 μl. Either distilled water, ethanol and/or dimethylsulphoxide (each in suitable concentrations) can be used as solvent.
Control mixtures contain corresponding volumes of these solvents. After the initial absorption has been recorded (2 to 3 minutes) aggregation is induced with PAF (5×10^-8 M).
The maximum of the first aggregation wave is used to assess the effects of the substance. The PAF-induced maximum absorption rate (=maximum aggregation×100%) is tested at the same time in a parallel mixture (=control mixture in one of the channels of the two-channel aggregometer) as each test mixture (second channel) and is used as a 100% value.
The aggregation value attained under the effect of the test substance is given as a percentage of the control value, i.e. less than 100% in the case of an inhibition of aggregation and over 100% in the case of an increase.
Each test substance is investigated at concentrations of from 10^-3 to 10^-8 M with a random sampling of n=4 with regard to an inhibitory effect on the PAF-induced thrombocyte aggregation. Then a concentration-activity curve is drawn up using 3 concentrations and the IC50 is determined (concentration giving a 50% inhibition of aggregation).

Row | SMILES | IC50 [µM]
1 | Cc1nc2c(n1C)C(c1ccccc1)=NCC(=O)N2 [compound 30] | > 50
2 | COc1ccc2c(c1)C(c1ccccc1Cl)=NCC(=O)N2 [compound 25] | > 100
3 | O=C1CN=C(c2ccccc2Cl)c2c(sc3c2CCCS3)N1 [compound 14] | 234
4 | CCC1N=C(c2ccccc2Cl)c2ccsc2NC1=O (centres unmarked) [compound 23] | 810
5 | CN1C(=O)CN=C(c2ccccc2)c2cc([N+](=O)[O-])cnc21 [compound 7] | 380
6 | O=C1CN=C(c2ccccc2Cl)c2sccc2N1 [compound 16] | 500
7 | CN1CCN=C(c2ccccc2)c2c(Cl)nsc21 [compound 18] | 110
8 | COC(=O)c1ccc2c(c1)C(c1ccccc1Cl)=NCC(=O)N2 [compound 29] | 120
9 | S=C1CN=C(c2ccccc2)c2cc(Cl)ccc2N1 [compound 19] | 620
10 | O=C1CN=C(c2ccccc2)c2cc([N+](=O)[O-])cnc2N1 [compound 8] | 250
11 | O=C1CN=C(c2ccccc2Cl)c2ccsc2N1 [compound 9] | 760
12 | CCn1nc(C)c2c1NC(=O)CN=C2c1ccccc1Cl [compound 15] | 870
13 | O=C1CN=C(c2ccccc2Cl)c2cc(Cl)ccc2N1 [compound 28] | > 100
14 | CCN(CC)CCN1C(=O)CN=C(c2ccccc2F)c2cc(Cl)ccc21 [compound 5] | 80
15 | COc1cccc2c1NC(=O)CN=C2c1ccccc1Cl [compound 27] | 356
16 | N#CCCn1nnc2c1NC(=O)CN=C2c1ccccc1Cl [compound 17] | 1000
17 | O=C1CN=C(c2ccccc2Cl)c2cc([N+](=O)[O-])ccc2N1 [compound 3] | 80
18 | Cc1ccc2c(c1)C(c1ccccc1Cl)=NCC(=O)N2 [compound 22] | 580
19 | CCC1N=C(c2ccccc2Cl)c2cc(Br)sc2NC1=O (centres unmarked) [compound 24] | 530
20 | CCn1nc(C)c2c1C(c1ccccc1)=NCC(=S)N2 [compound 20] | 250
21 | CN1CCN=C(c2ccccc2Cl)c2cc(Cl)ccc21 [compound 21] | 360
22 | O=C1CN=C(c2ccccc2)c2cc([N+](=O)[O-])ccc2N1 [compound 2] | 220
23 | CN1C(=O)CN=C(c2ccccc2Cl)c2cc(Br)sc21 [compound 11] | 170
24 | CN1C(=O)CN=C(c2ccccc2F)c2cc([N+](=O)[O-])ccc21 [compound 4] | 46
25 | CN1C(=O)CN=C(c2ccccc2)c2cc(Cl)ccc21 [compound 1] | 250
26 | CCc1cc2c(s1)NC(=O)CN=C2c1ccccc1Cl [compound 10] | 325
27 | O=C1CN=C(c2ccccc2Cl)c2c(sc3c2CCOC3)N1 [compound 26] | 79
28 | Cc1csc2c1C(c1ccccc1)=NCC(=O)N2 [compound 12] | 280
29 | CN1C(=O)CN=C(c2ccccc2Cl)c2cc([N+](=O)[O-])sc21 [compound 13] | 200

Source: patent publication US4623646A, “PAF-antagonistic diazepines, methods of use” (Boehringer Ingelheim KG, priority 1984, dated 1986)
